Where two headings read alike, the source gives them in different places.
Experiments:
Experiment in all cases: SelectScreen Kinase Profiling, single point inhibition and IC50 for off-target kinases
Type in all cases: biochemical
off-target kinases [1] = target: T1, off-target kinases (Homo sapiens, UniProt Q9UBE8); conditions: NLK, LanthaScreen Binding
T1 sequence (Q9UBE8 1-527): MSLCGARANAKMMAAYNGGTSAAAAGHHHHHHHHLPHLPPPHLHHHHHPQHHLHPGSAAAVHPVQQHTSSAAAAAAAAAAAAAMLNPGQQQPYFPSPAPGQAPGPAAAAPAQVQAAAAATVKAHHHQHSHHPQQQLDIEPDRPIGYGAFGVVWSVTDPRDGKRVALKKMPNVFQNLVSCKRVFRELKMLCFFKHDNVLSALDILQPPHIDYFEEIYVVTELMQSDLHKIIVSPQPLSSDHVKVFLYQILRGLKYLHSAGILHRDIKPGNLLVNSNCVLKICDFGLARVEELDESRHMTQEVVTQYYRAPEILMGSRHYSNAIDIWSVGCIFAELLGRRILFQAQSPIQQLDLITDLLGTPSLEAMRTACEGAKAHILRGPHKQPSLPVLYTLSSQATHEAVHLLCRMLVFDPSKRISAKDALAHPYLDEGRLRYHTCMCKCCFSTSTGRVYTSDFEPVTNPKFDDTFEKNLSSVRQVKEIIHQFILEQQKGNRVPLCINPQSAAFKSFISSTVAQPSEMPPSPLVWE

off-target kinases [2] = target: off-target kinases (Homo sapiens, UniProt P08581, D1228H); conditions: MET D1228H, LanthaScreen Binding
off-target kinases (Homo sapiens, UniProt P08581, D1228H), sequence (P08581 25-1390 D1228H): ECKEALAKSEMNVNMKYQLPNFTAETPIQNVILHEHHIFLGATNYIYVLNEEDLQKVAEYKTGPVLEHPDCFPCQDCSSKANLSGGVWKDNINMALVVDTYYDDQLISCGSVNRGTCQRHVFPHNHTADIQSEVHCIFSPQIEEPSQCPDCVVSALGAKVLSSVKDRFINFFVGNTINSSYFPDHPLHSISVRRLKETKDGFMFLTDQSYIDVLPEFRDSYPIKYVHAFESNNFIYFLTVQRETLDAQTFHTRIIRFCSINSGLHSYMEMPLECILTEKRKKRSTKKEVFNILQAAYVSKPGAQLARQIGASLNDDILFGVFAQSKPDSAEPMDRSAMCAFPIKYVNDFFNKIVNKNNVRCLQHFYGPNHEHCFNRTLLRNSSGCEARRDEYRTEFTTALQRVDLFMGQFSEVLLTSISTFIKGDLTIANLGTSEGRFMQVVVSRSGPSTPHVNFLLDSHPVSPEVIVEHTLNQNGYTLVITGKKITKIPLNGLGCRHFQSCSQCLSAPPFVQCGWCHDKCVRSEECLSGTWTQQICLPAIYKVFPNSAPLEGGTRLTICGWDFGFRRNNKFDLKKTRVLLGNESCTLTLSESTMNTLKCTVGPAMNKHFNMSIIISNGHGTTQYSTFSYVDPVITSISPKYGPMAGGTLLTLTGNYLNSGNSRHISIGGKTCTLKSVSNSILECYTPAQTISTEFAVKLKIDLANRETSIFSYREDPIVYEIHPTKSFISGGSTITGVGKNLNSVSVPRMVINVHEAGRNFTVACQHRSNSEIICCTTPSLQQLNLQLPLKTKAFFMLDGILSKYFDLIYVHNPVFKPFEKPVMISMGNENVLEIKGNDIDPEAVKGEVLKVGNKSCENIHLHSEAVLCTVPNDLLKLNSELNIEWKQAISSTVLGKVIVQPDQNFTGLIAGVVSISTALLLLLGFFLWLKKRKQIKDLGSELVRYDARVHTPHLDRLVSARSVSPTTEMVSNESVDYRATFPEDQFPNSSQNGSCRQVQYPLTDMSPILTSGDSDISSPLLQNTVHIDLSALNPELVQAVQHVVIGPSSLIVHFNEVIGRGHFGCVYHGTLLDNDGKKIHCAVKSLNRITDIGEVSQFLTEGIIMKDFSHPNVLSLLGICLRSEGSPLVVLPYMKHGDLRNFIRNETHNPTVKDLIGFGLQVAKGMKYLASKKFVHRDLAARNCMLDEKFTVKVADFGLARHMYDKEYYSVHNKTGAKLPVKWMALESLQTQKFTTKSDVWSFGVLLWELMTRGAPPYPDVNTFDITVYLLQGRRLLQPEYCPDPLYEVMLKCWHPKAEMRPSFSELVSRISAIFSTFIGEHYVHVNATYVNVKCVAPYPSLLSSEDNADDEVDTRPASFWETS

off-target kinases [3] = target: off-target kinases (Homo sapiens, UniProt P49674)
off-target kinases (Homo sapiens, UniProt P49674), sequence (P49674 whole entry): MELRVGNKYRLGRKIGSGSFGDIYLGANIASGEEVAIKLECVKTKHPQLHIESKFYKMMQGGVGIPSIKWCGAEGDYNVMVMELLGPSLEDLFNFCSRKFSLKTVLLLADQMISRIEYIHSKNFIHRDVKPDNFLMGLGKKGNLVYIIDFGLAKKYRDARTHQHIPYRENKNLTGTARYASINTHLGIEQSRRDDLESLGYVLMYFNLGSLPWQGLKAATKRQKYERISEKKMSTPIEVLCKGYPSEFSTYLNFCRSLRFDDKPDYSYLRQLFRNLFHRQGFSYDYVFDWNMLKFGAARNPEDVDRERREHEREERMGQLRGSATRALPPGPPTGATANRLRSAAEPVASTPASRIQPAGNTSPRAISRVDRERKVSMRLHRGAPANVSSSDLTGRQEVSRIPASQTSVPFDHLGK

off-target kinases [4] = target: off-target kinases (Homo sapiens, UniProt Q00526); conditions: CDK3/cyclin E1, LanthaScreen Binding
off-target kinases (Homo sapiens, UniProt Q00526), sequence (Q00526 whole entry): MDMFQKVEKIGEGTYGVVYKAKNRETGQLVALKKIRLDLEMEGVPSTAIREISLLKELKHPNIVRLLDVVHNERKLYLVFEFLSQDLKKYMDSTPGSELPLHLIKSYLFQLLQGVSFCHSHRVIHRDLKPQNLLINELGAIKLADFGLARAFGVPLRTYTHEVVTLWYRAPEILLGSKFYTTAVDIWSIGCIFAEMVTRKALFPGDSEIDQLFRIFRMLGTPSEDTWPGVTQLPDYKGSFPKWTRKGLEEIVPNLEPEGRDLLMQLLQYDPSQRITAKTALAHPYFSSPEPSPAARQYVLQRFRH

off-target kinases [5] = target: off-target kinases (Homo sapiens, UniProt Q9UIK4); conditions: DAPK2, LanthaScreen Binding
off-target kinases (Homo sapiens, UniProt Q9UIK4), sequence (Q9UIK4 whole entry): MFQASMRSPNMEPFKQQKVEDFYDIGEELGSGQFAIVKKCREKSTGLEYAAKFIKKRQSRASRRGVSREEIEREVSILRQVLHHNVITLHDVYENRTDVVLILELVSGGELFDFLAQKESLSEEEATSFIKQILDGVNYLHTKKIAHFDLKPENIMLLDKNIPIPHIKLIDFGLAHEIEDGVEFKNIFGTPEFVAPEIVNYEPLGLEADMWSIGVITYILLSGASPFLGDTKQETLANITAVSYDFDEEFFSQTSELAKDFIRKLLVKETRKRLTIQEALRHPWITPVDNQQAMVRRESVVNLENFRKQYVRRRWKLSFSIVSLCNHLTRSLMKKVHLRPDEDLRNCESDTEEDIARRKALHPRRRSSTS

**Q.** How did the inhibition (off-target kinases [1]; read-out: % Inhibition 1) turn out when `N#Cc1cc(-c2ncnc(Nc3ccc(N4CCN(C5COC5)CC4)cc3)n2)ccc1OC1CCOCC1` [Compound 1, 5-(4-((4-(4-(oxetan-3-yl)piperazin-1-yl)phenyl)amino)-1,3,5-triazin-2-yl)-2-((tetrahydro-2H-pyran-4-yl)oxy)benzonitrile] was run?
**A.** 26%

**Q.** And the inhibition (off-target kinases [1]; read-out: % Inhibition 2)?
**A.** 29%

**Q.** What about the inhibition (off-target kinases [1]; read-out: % Inhibition Avg) of the same compound?
**A.** 28%

**Q.** And the inhibition (off-target kinases [2]; read-out: % Inhibition 1)?
**A.** 46%

**Q.** What about the inhibition (off-target kinases [2]; read-out: % Inhibition 2) of the same compound?
**A.** 48%

**Q.** What about the inhibition (off-target kinases [2]; read-out: % Inhibition Avg) of the same compound?
**A.** 47%

**Q.** What about the inhibition (off-target kinases [3]; CSNK1E (CK1 epsilon), ZLYTE, ATP Km app, read-out: % Inhibition 2) of the same compound?
**A.** 4%

**Q.** And the inhibition (off-target kinases [3]; CSNK1E (CK1 epsilon), ZLYTE, ATP Km app, read-out: % Inhibition Avg)?
**A.** 1%

**Q.** And the inhibition (off-target kinases [3]; read-out: % Inhibition 1)?
**A.** -2%

**Q.** And the inhibition (off-target kinases [4]; read-out: % Inhibition 1)?
**A.** 2%

**Q.** What about the inhibition (off-target kinases [4]; read-out: % Inhibition 2) of the same compound?
**A.** 9%

**Q.** And the inhibition (off-target kinases [4]; read-out: % Inhibition Avg)?
**A.** 6%

**Q.** What about the inhibition (off-target kinases [5]; read-out: % Inhibition 1) of the same compound?
**A.** 60%

**Q.** And the inhibition (off-target kinases [5]; read-out: % Inhibition 2)?
**A.** 53%

**Q.** What about the inhibition (off-target kinases [5]; read-out: % Inhibition Avg) of the same compound?
**A.** 56%

— US11572590B2, “Methods for evaluating tumor cell spheroids using 3D microfluidic cell culture device” (Dana-Farber Cancer Institute, Inc., priority 2017, dated 2023)
